These results are taken from PMC7144209, “Design, synthesis and anticancer activity of naphthoquinone derivatives” (Journal of Enzyme Inhibition and Medicinal Chemistry, 2020).

Structures are written as SMILES. Some results are limits rather than exact numbers.

In data set [1] the test system is SGC-7901, MGC-803, SMMC-7721, U-87 cell lines. Kind of data set: MTT anticancer activity, summary in words over the cell line panel. Format: cell-based. Conditions: MTT assay. The method, then: (§1) MGC-803, SGC-7901, U87 and SMMC-7721 cells were plated in 96-well plate at 7000 per well. Cells were incubated with the different concentrations of the compounds for 48 h. Subsequently, MTT (0.5 mg/mL) were used to test the cell viability, then 150 μL DMSO was added to each well after cells were incubated for 4 h and the absorbance was measured at 492 nm.
Compounds 1–24 were detected for anticancer activities against SGC-7901, MGC-803, SMMC-7721, U-87 cell lines in vitro by the MTT assay, and ADM was used as the positive control. From Table 1, when the phenolic hydroxyls of naphthoquinone moiety were converted to ether, the activity was missing. […] So colony formation assay of this compound (Figure 4) was used to investigate the effect of it on cell proliferation in SGC-7901 cells. The experiment examined the ability for producing colonies after the cells were treated with the cell death agents[35]^,[36].
(In general: Tetrazolium dyes change colour on reduction, which living cells bring about.)

The test system of the next data set is SGC-7901. Kind of data set: MTT cell viability assay, SGC-7901 cells. The data set is classed as cell-based, human. Particulars: Homo sapiens, SGC-7901, 48 h, n = 3. The protocol:
(§2) MGC-803, SGC-7901, U87 and SMMC-7721 cell lines were cultured in DMEM supplemented with 10% foetal bovine serum, 100 IU/mL penicillin/streptomycin. The cells were incubated in an atmosphere containing 5% CO2 at 37 °C.
as §1

The next data set has as its system U87. Kind of data set: MTT cell viability assay, U87 cells. Format: cell-based. Conditions: Homo sapiens, U-87 MG, 48 h, n = 3. The protocol:
as §2, §1

A further data set relates to MGC-803. Put plainly: MTT cell viability assay, MGC-803 cells. Conditions: Homo sapiens, MGC-803, 48 h, n = 3. Format: cell-based. The method, then:
as §2, §1

A further data set deals with L02. Put plainly: MTT cell viability assay, L02 cells. The data set is classed as cell-based. Particulars: Homo sapiens, n = 3.
The next data set deals with SMMC-7721. Kind of data set: MTT cell viability assay, SMMC-7721 cells. The data set is classed as cell-based. Particulars: Homo sapiens, 48 h, n = 3. The method, then:
as §2, §1

A word on the IC50: it is the midpoint of a concentration-inhibition curve. High values mean weaker potency, low ones greater potency. The melting point is the temperature, or range, at which the solid turns liquid.

`CC(C)=CCC(OC(=O)CCC(=O)NCCc1cccc(Cl)c1)C1=CC(=O)c2c(O)ccc(O)c2C1=O` (stereo not drawn) [Compound 17, 1-(5,8-dihydroxy-1,4-dioxo-1,4-dihydronaphthalen-2-yl)-4-methylpent-3-en-1-yl-4-((3-chlorophenethyl)amino)-4-oxobutanoate]: the “anticancer activity (in words)” value in data set [1] is reported as “good activity”. The IC50 with SGC-7901 worked out at 20.8 ± 0.5 µM; with U87, 3.8 ± 1.7 µM; with MGC-803 it was 6.7 ± 2.4 µM; with L02, 11.4 ± 1.8 µM; with SMMC-7721, 15.9 ± 0.2 µM.
For `CC(C)=CCC(OC(=O)CCC(=O)Nc1ccc(OC(F)(F)F)cc1)C1=CC(=O)c2c(O)ccc(O)c2C1=O` (stereo not drawn) [Compound 13, 1-(5,8-dihydroxy-1,4-dioxo-1,4-dihydronaphthalen-2-yl)-4-methylpent-3-en-1-yl-4-oxo-4-((4-(trifluoromethoxy)phenyl)amino)butanoate], the “anticancer activity (in words)” value in data set [1] is “good activity”. Besides, the IC50 with SGC-7901 came to 7.8 ± 3.7 µM; with U87, 3.46 ± 0.31 µM; in the data set with MGC-803, 10.2 ± 2.9 µM; in the data set with L02 it was 15.8 ± 1.1 µM; in the data set on SMMC-7721, 16.9 ± 2.2 µM.
Take `CC(C)=CCC(OC(=O)CCC(=O)NCCc1ccc(F)cc1)C1=CC(=O)c2c(O)ccc(O)c2C1=O` (stereo not drawn) [Compound 20, 1-(5,8-dihydroxy-1,4-dioxo-1,4-dihydronaphthalen-2-yl)-4-methylpent-3-en-1-yl 4-((4-fluorophenethyl)amino)-4-oxobutanoate]: in data set [1], the “anticancer activity (in words)” value is “good activity”. Besides, the IC50 in the data set with SGC-7901 came out at 13.3 ± 0.6 µM; in the data set with U87 it was 5.2 ± 1.4 µM; in the data set on MGC-803 it was 3.5 ± 1.4 µM; with L02, 12.3 ± 0.5 µM; in the data set on SMMC-7721 it was 18.6 ± 3.6 µM.
On to `CC(C)=CCC(OC(=O)CCC(=O)Nc1ccc(F)c(C(F)(F)F)c1)C1=CC(=O)c2c(O)ccc(O)c2C1=O` (stereo not drawn) [Compound 11, 1-(5,8-dihydroxy-1,4-dioxo-1,4-dihydronaphthalen-2-yl)-4-methylpent-3-en-1-yl-4-((4-fluoro-3-(trifluoromethyl)phenyl)amino)-4-oxobutanoate], for which the “anticancer activity (in words)” value in data set [1] was “good activity”. Moreover, the IC50 in the data set on SGC-7901 was found to be 2.25 ± 1.5 µM; in the data set on U87, 3.75 ± 0.77 µM; in the data set with MGC-803, 8.4 ± 3.1 µM; in the data set with L02, 4 ± 0.1 µM; in the data set on SMMC-7721, 9.5 ± 0.8 µM.
As for `CC(C)=CCC(OC(=O)CCC(=O)N1CCCc2ccccc21)C1=CC(=O)c2c(O)ccc(O)c2C1=O` (stereo not drawn) [Compound 9, 1-(5,8-dihydroxy-1,4-dioxo-1,4-dihydronaphthalen-2-yl)-4-methylpent-3-en-1-yl-4-(3,4-dihydroquinolin-1(2H)-yl)-4-oxobutanoate], the “anticancer activity (in words)” value in data set [1] was “good activity”. Moreover, the IC50 came out at 8.6 ± 2.5 µM with SGC-7901; 4.45 ± 0.66 µM in the data set with U87; 3.1 ± 0.1 µM with MGC-803; 12.1 ± 0.8 µM in the data set with L02; 12.3 ± 0.1 µM with SMMC-7721.
`CC(C)=CCC(OC(=O)/C=C\C(=O)N1CCOCC1)C1=CC(=O)c2c(O)ccc(O)c2C1=O` (stereo not drawn) [Compound 24, 1-(5,8-dihydroxy-1,4-dioxo-1,4-dihydronaphthalen-2-yl)-4-methylpent-3-en-1-yl (Z)-4-morpholino-4-oxobut-2-enoate] came in with a melting point of 104 °C. The compound also had an IC50 with SGC-7901 of 38.5 ± 0.7 µM. This compound also showed an IC50 with U87 of 20.6 ± 0.6 µM. The IC50 in the data set with MGC-803 was 40.8 ± 1.9 µM. In the data set with L02, this compound returned an IC50 above 100 µM. This compound registered an IC50 in the data set with SMMC-7721 of 50.1 ± 0.8 µM.
